Reference: patent publication US11466066B2, “Variants of human BMP7 protein” (ELI LILLY AND COMPANY, priority 2017, dated 2022)
Marks after values point to notes of the source that are not given here.

B1: Human mature BMP7 protein variant F9 (SEQ ID NO: 8): homodimer wherein each monomeric subunit has SEQ ID NO: 8 (Y65G/I86L/F93V/N110G/Y128W), disulfide linked (protein)
chain: STGSKQRSQNRSKTPKNQEALRMANVAENSSSDQRQACKKHELYVSFRDLGWQDWIIAPEGYAAGYCEGECAFPLNSYMNATNHALVQTLVHVINPETVPKPCCAPTQLGAISVLYFDDSSNVILKKWRNMVVRACGCH
modifications: homodimer, disulfide linked

Key:
[1] = tested on: human articular osteoarthritic (OA) chondrocytes; test: Proteoglycan synthesis (35S incorporation); assay type: cell-based; conditions: 7 days
Description: Proteoglycan synthesis in human articular osteoarthritic (OA) chondrocytes is an n vitro model for chondrocyte activity. The effect of human mature BMP7 protein variants may also be evaluated on proteoglycan synthesis m human articular OA chondrocytes in vitro and compared to wild type human mature pro-BMP7. The proteoglycan synthesis may be measured using ^35S incorporation. Arthritic human knee cartilage is obtained from donors at surgery. The cartilage pieces may be finely chopped and chondrocytes may be isolated from the associated matrix by enzymatic digestions. The cartilage may be first digested with 1 mg/ml pronase in DMEM/PRF (phenol red free) media with 5% Fe supplemented calf serum (FCS) and 2% penicillin-streptomycin-antimycotic for 60 minutes followed by overnight digestion with 1 mg/ml collagenase II in DMEM/PRF media with 5% FCS) and 2% penicillin-streptomycin-antimycotic at 37° C. The cells may be washed with DMEM/F-12 media and then resuspended in DMEM/F-12 with 5% FCS and counted with a Coulter counter. The cells may be plated at a density of 30,000 cells/well in 96-well collagen coated CytoStar T plate in growth media containing DMEM, 5% FCS. ITS (insulin, transferin, selenium) and 1% penicillin-streptomycin-antimycotic. After 24 hours, the media may be replaced with 100 μl of growth media containing 10 μCi/ml (1 μCi/well) of ^35S and treated with wild type human pro-BMP7 or a human pro-BMP7 protein variants at various doses. Then the cells may be incubated for approximately 7 days at 37° C. with 5% CO2. At the end of the treatment period the media may be removed, replaced with phosphate buffered saline and ^35S incorporation is counted using a Wallac 1450 MicroBeta TriLux Liquid Scintillation Counter & Luminometer.

[2] = Thermal unfolding assay (circular dichroism); assay type: physicochemical; conditions: CD at 208 nm; 10 mM citrate, 300 mM NaCl, pH 7.4
Description: The effect of temperature on the conformational stability of human BMP7 protein variants may be followed by circular dichroism (CD) on a Jasco J-810 instrument equipped with a thermoelectric sample compartment. Briefly stated, 0.2-1.0 mg/mL pro-BMP7 may be formulated in storage buffer (10 mM citrate, 300 mM NaCl, pH 7.4) and loaded into a 0.02 cm path-length CD cuvette. The sample may be heated from 20 to 80° C. at a linear rate of 1° C./minute and the resulting CD signal at 208 nm may be recorded every 0.2° C. using a 1 second signal response time. A non-linear fit to equation 1 may be performed by the program JMP (SAS Institute Inc, Cary, N.C.) to obtain the thermal unfolding mid-point (Tm).
[formula] where, Yu and Yf are fit and represent the Y-intercept of the pre- and post-transition baselines, respectively. Mu and Mf are fit and represent the slope of the pre- and post-transition baselines, respectively. Hm and S are fit and represent enthalpy and entropy, respectively. T is the measured temperature in Kelvin units.

RAR gamma = RAR gamma protein expression, Western Blot; assay type: cell-based, mouse; conditions: MFc7 and 3T3-L1 cell lines; 1 μg/mL, 48 hours; Western Blot intensity
Description: (§1) 3T3-L1 fibroblasts and MFc7 mouse renal myofibroblasts may be maintained under routine cell culture conditions in DMEM/10% calf serum medium or OPTI-MEM/10% FBS medium, respectively. The cells may be plated in 10 cm tissue culture plates at a seeding density of 500,000 cells/plate. After 48 hours, the cells may be washed with PBS prior to the addition of either DMEM/2% dialyzed FBS or OPTI-MEM/2% dialyzed FBS medium containing 1 μg/mL human BMP7 protein or 1 μg/mL of a human BMP7 protein variant. The cells may be incubated for 48 hours and then rinsed with ice-cold PBS, and then lysed with Protein Extraction Reagent. Then lysates may be centrifuged at 14,000×g for 15 minutes. A Bradford protein assay may be performed to determine the protein concentration of each lysate. Equivalent amounts of protein (for example, 25 μg) may be resolved by SDS-PAGE and then transferred to nitrocellulose membranes for Western Blot analysis. The membranes may be probed with an anti-RAR alpha antibody and/or an anti-RAR gamma antibody.

DLD1 C5 tumor xenografts = test: DLD1 C5 mouse xenograft tumor model; assay type: in vivo; conditions: F9 IP 0.04 mg/kg MWF for 3 weeks followed by 3 weeks irinotecan 20 mg/kg M and Th
Description: Female athymic nude mice age 6- to 7-weeks old are available commercially, including from Harlan Laboratories (Indianapolis, Ind.). The mice are allowed to acclimate for one week and fed ad libitum on a normal low fat (4.5%) diet, which may be continued for the duration of the study. Tumor cells are available for purchase from ATCC and may be cultured in cell culture media such as RPMI 1640 (Life Technologies) with L-glutamine, 25 mM HEPES supplemented with 10% FBS and 1 mM Na Pyruvate. Cells may be detached, washed with serum free medium and then resuspended at a final concentration of 50×10^6 cells/mL in serum free RPMI 1640. Tumor cells, approximately 5×106 may be injected subcutaneously in the rear flank of subject mice in a 1:1 mixture of serum free growth medium and Matrigel (Becton Dickinson, Bedford, Mass.). Tumor and body weight measurements may be performed twice weekly. Prior to treatment, mice can be randomized based on tumor size using a randomization algorithm. Treatments may be started when the average tumor volume reaches 100 mm3. […]
All test or control proteins are prepared in phosphate Buffered Saline (PBS) prior to dose. Tumor size may be determined by caliper measurements. […] Log volume data can be analyzed with two-way repeated measures ANOVA by time and treatment using SAS PROC MIXED software (SAS Institutes Inc, Cary, N.C.). […]

RAR alpha = RAR alpha protein expression, Western Blot; assay type: cell-based, mouse; conditions: MFc7 and 3T3-L1 cell lines; 1 μg/mL, 48 hours; Western Blot intensity
Description: as §1

Molecule	Proteoglycan Synthesis (35S incorporation) ([1]; Treatment (ng) 0.1) [CPMs]	Proteoglycan Synthesis (35S incorporation) ([1]; Treatment (ng) 0.4) [CPMs]	Proteoglycan Synthesis (35S incorporation) ([1]; Treatment (ng) 1.2) [CPMs]	Proteoglycan Synthesis (35S incorporation) ([1]; Treatment (ng) 3.7) [CPMs]	Proteoglycan Synthesis (35S incorporation) ([1]; Treatment (ng) 11) [CPMs]	Proteoglycan Synthesis (35S incorporation) ([1]; Treatment (ng) 33) [CPMs]	Proteoglycan Synthesis (35S incorporation) ([1]; Treatment (ng) 100) [CPMs]	Proteoglycan Synthesis (35S incorporation) ([1]; Treatment (ng) 300)	thermal unfolding mid-point (Tm) [2] [°C]	RAR gamma protein expression (RAR gamma)	tumor response (DLD1 C5 tumor xenografts)	RAR alpha protein expression (RAR alpha)
Wild type human pro-BMP7: homodimers of wild type human mature BMP7 in a non-covalent complex with wild type human pro-domain [reference compound]	679 ± 120	724 ± 120	679 ± 120	666 ± 130	723 ± 72	799 ± 65	1500 ± 309	3325 ± 237^a CPMs	61	–	–	–
B1	–	–	–	–	–	–	–	–	–	stimulated	tumor regression	stimulated
